Reference: patent US20180085345A1, “METHODS OF TRACKING SKIN CONDITIONS USING CYCLOLIGNAN COMPOUNDS” (m. Alphabet 2, L.L.C., priority 2015, published 2018)

What was measured:
[1] = cited from earlier work
actinic keratoses = assay: Randomized, blinded study of topical picropodophyllin solution in actinic keratoses: lesion count in the treatment area; type: in vivo, patients; conditions: topical twice daily for 1 week
Method: To date, 56 patients have been studied to determine the efficacy of picropodophyllin in treating actinic keratoses. The patients were randomized into four groups, and the patients in each group were treated with a solution containing either 0.5%, 1.25%, or 2.0% picropodophyllin (w/v) in propylene glycol, or a placebo constituting only the vehicle propylene glycol. The picropodophyllin solution was prepared in 100% propylene glycol solution. The solutions were prepared aseptically following GMP protocols. The affected areas of the body variously included the scalp, face, arms, and legs. Without knowing which one of the four solutions they were applying, the subjects self-applied one of the solutions to the skin. After initial application, the subjects gently massaged the solutions into their skin. This was done twice daily for 1 week. Lesions (actinic keratosis) were palpated and visualized by a trained lesion counter who is a board certified dermatologist. The same investigator evaluated each subject at each visit for consistency. The subjects were evaluated at baseline, day 3, day 7, day 14, day 28, day 56 and day 90. Within the treatment area, the number of lesions were counted, regardless of their size. The change in the number of lesions (% decline from baseline) within the treatment area was calculated and the results are shown in the table below: […]

[2] = test system: insulin-like growth factor-1 (IGF-1); conditions: shown in WO 02/102804; cited from earlier work

## COc1cc([C@@H]2c3cc4c(cc3[C@H](O)[C@H]3COC(=O)[C@@H]23)OCO4)cc(OC)c1OC [PPP, picropodophyllin]
[1]
  solubility in water: nearly completely insoluble
Actinic keratoses; 0.50% w/v in propylene glycol, 28 days
  % Decline from Baseline (number of lesions within the treatment area): −56^AB %
Actinic keratoses; 0.50% w/v in propylene glycol, 56 days
  % Decline from Baseline (number of lesions within the treatment area): −82^AB %
Actinic keratoses; 0.50% w/v in propylene glycol, 90 days
  % Decline from Baseline (number of lesions within the treatment area): −90^AB %
Actinic keratoses; 1.25% w/v in propylene glycol, 28 days
  % Decline from Baseline (number of lesions within the treatment area): −53^AB %
Actinic keratoses; 1.25% w/v in propylene glycol, 56 days
  % Decline from Baseline (number of lesions within the treatment area): −73^AB %
Actinic keratoses; 1.25% w/v in propylene glycol, 90 days
  % Decline from Baseline (number of lesions within the treatment area): −65^AB %
Actinic keratoses; 2.00% w/v in propylene glycol, 28 days
  % Decline from Baseline (number of lesions within the treatment area): −17%
Actinic keratoses; 2.00% w/v in propylene glycol, 56 days
  % Decline from Baseline (number of lesions within the treatment area): −55^AB %
Actinic keratoses; 2.00% w/v in propylene glycol, 90 days
  % Decline from Baseline (number of lesions within the treatment area): −84^AB %
[2]
  inhibition of insulin-like growth factor-1 (IGF-1): potent inhibitor
